Where two headings read alike, the source gives them in different places.
Experiments:
Cryptosporidium parvum = test: qRT-PCR assay of the growth of C. parvum in vitro in HCT-8 host cells (primary and secondary screening, EC50); assay type: cell-based
[1] = primary screening at 10 uM, from Hs18S ΔCT
[2] = primary screening at 10 uM, treated vs control

| Compound | Inhibition (%) (Cryptosporidium parvum; primary screening at 10 uM) | Cytotoxicity (%) (HCT-8 host cells (Hs18S); [1]) | Hs18S ΔCT (HCT-8 host cells (Hs18S); [2]) | also measured |
| --- | --- | --- | --- | --- |
| C[C@@H]1[C@H](O)[C@@H](C)/C=C/C=C/CC/C=C/C=C/C=C/C=C/C(O[C@H]2O[C@H](C)[C@@H](O)[C@H](N)[C@@H]2O)CC2O[C@](O)(CC(O)C(O)CCC(O)CC(O)CC(O)CC(=O)O[C@H]1C)CC(O)C2C(=O)O (some centres unmarked) [NYSTATIN] | 34.97 | 51.7 | 1.05 |  |
| COc1ccc(-c2coc3c4c(c(CC=C(C)C)c(O)c3c2=O)OC(C)(C)C=C4)cc1 [OSAJIN 4'-METHYL ETHER] | -21.87 | -2.7 | -0.04 |  |
| COC[C@]12CN(C=O)[C@@H]3[C@@H]4[C@H](OC)[C@H]1[C@@]3([C@@H](OC)C[C@H]2O)[C@@H]1C[C@@]2(O)[C@H](OC(=O)c3ccccc3)[C@@H]1[C@]4(OC(C)=O)[C@@H](O)[C@@H]2OC [OXONITINE] | 0.75 | 3.3 | 0.05 |  |
| COc1cc2c(cc1-c1cc3cc4ccoc4cc3oc1=O)OCO2 [PACHYRRHIZIN] | 29.77 | -6.0 | -0.08 |  |
| CN(C)CC(=O)OC[C@@H](O)[C@@H](O)[C@H](O)[C@@H](O)C(=O)[O-].[Na+] [PANGAMIC ACID SODIUM] | -4.04 |  |  | Cytotoxicity (%) (HCT-8 host cells (Hs18S); 10 µM): -61.0% |
| CC(=O)OCC(OC(C)=O)C(OC(C)=O)C(OC(C)=O)C(OC(C)=O)C(COC(C)=O)OC(C)=O (centres unmarked) [PERSEITOL HEPTAACETATE] | 0.17 | -10.1 | -0.14 |  |
| Cl.NCCc1ccccc1 [PHENETHYLAMINE HYDROCHLORIDE] | 39.04 | 87.4 | 2.99 |  |
| CC(=O)c1c(O)cc(O)cc1O [PHLORACETOPHENONE] | -25.30 | 26.5 | 0.44 |  |
| COc1ccc(/C=C/c2cc(O)cc(O[C@@H]3O[C@H](CO)[C@@H](O)[C@H](O)[C@H]3O)c2)cc1 [PICEID METHYL ETHER] | 15.82 | 30.3 | 0.52 |  |
| COc1cc([C@@H]2c3cc4c(cc3[C@H](OC(C)=O)[C@H]3COC(=O)[C@@H]23)OCO4)cc(OC)c1OC [PICROPODOPHYLLIN ACETATE] | 20.82 | 50.6 | 1.02 |  |
| COc1cc([C@@H]2c3cc4c(cc3[C@H](OC(C)=O)[C@H]3COC(=O)[C@H]23)OCO4)cc(OC)c1OC [PODOPHYLLIN ACETATE] | 72.02 | 33.2 | 0.58 | % Inhibition (3.3 uM) (Cryptosporidium parvum; secondary screening at 3.3 uM): 64% |
| CC(C)c1c(O)c(-c2cc3c(c(C(C)C)c2O)CCC2C(C)(C)CCC[C@]32C)cc2c1CCC1C(C)(C)CCC[C@]21C (some centres unmarked) [PODOTOTARIN] | -4.91 | 2.5 | 0.04 |  |
| COc1ccc(-c2coc3c4c(c(CC=C(C)C)c(O)c3c2=O)OC(C)(C)C=C4)cc1OC [POMIFERIN DIMETHYL ETHER] | -58.61 | 6.1 | 0.09 |  |
| O=c1cc(-c2ccccc2)oc2cccc(O)c12 [PRIMULETIN] | -14.55 | 3.1 | 0.05 |  |
| O=C(O)[C@@H]1CCCN1 [PROLINE (L)] |  |  |  | Inhibition (%) (Cryptosporidium parvum; 10 µM): -22.72; Hs18S ΔCT (HCT-8 host cells (Hs18S)): 0.03; Cytotoxicity (%) (HCT-8 host cells (Hs18S); 10 µM): 1.9 |
| C[C@@H]1C[C@H](O)[C@@]2(O)[C@]13CC(=O)OC[C@@]2(C)[C@@](C)(O)C(=O)C3 [PSEUDO-ANISATIN] | -5.73 | 9.2 | 0.14 |  |
| O=C(O)c1cc(O)c(=O)c2c(O)c(O)c(O)cc2c1 [PURPUROGALLIN-4-CARBOXYLIC ACID] | 2.20 | 7.3 | 0.11 |  |

| Compound | Inhibition (%) (Cryptosporidium parvum; primary screening at 10 uM) | Cytotoxicity (%) (HCT-8 host cells (Hs18S); [1]) | Hs18S ΔCT (HCT-8 host cells (Hs18S); [2]) | also measured |
| --- | --- | --- | --- | --- |
| C=C(C)CCCC(C)CCOC(C)=O (centres unmarked) [RHODINYL ACETATE] | -15.58 | 10.9 | 0.17 |  |
| Cc1cc2nc3c(=O)[nH]c(=O)nc-3n(C[C@H](O)[C@H](O)[C@H](O)COP(=O)([O-])O)c2cc1C.[Na+] [RIBOFLAVIN 5-PHOSPHATE SODIUM] | -3.47 | -25.0 | -0.32 |  |
| NC[C@H]1O[C@H](O[C@H]2[C@H](O[C@@H]3O[C@H](CO)[C@@H](O)[C@H]3O)[C@@H](O)[C@H](N)C[C@@H]2N)[C@H](N)[C@@H](O)[C@@H]1O.O=S(=O)(O)O [RIBOSTAMYCIN SULFATE] | -35.94 | -2.0 | -0.03 |  |
| COc1ccc2c(c1O)-c1c(OC)c(OC)cc3c1[C@H](C2)N(C)CC3 [S-ISOCORYDINE (+)] | -15.72 | -47.4 | -0.56 |  |
| COc1cc2c(cc1O)CCNC2C (centres unmarked) [SALSOLINE] | -1.38 | -0.9 | -0.01 |  |
| CC1(C)CCC[C@]2(C)[C@H]3CC(=O)O[C@]3(C)CC[C@@H]12 [SCLAREOLIDE] | 26.58 | 32.7 | 0.57 |  |
| O=C(O)C1=C[C@@H](O)[C@@H](O)[C@H](O)C1 [SHIKIMIC ACID] |  |  |  | inhibition at 10 µM (Cryptosporidium parvum; Cryptosporidium parvum, HCT-8, primary screening at 10 uM, read-out: Inhibition (%)): 10.3%; Hs18S ΔCT (HCT-8 host cells (Hs18S); human, 41 h, 10 μM): 0.06 |
| Cc1c[nH]c2ccccc12 [SKATOLE] | 25.24 | 18.5 | 0.30 |  |
| C[C@@H]1CC[C@@]2(OC1)O[C@H]1C[C@H]3[C@@H]4CC[C@@H]5C[C@@H](O)CC[C@]5(C)[C@H]4CC[C@]3(C)[C@H]1[C@@H]2C [SMILAGENIN] | 13.52 | 33.2 | 0.58 |  |
| CC(C)=CCC/C(C)=C/CC/C(C)=C/CC/C(C)=C/CC/C(C)=C/CC/C(C)=C/CC/C(C)=C/CC/C(C)=C/CC/C(C)=C/CO [SOLANESOL] | -25.87 | 10.5 | 0.16 |  |
| CC(=O)OC/C=C(\C)CC/C=C(\C)CC/C=C(\C)CC/C=C(\C)CC/C=C(\C)CC/C=C(\C)CC/C=C(\C)CC/C=C(\C)CCC=C(C)C [SOLANESYL ACETATE] | 15.24 |  |  | Hs18S ΔCT (HCT-8 host cells (Hs18S)): -0.20; Cytotoxicity (%) (HCT-8 host cells (Hs18S); 10 µM): -14.8 |
| CC1=CC(=O)[C@H]2C(C)(C)CCC[C@]2(C)[C@@]1(O)CCc1ccoc1 [SOLIDAGENONE] | -14.64 | 39.6 | 0.73 |  |
| CN[C@@H]1[C@H](O)[C@H](NC)[C@H]2O[C@@]3(O)C(=O)C[C@@H](C)O[C@H]3O[C@@H]2[C@H]1O.Cl [SPECTINOMYCIN HYDROCHLORIDE] | -6.16 | -42.8 | -0.51 |  |
| CCNC(=O)CC[C@H](N)C(=O)[O-].[K+] [THEANINE POTASSIUM] | -54.47 | -36.3 | -0.45 |  |
| C[C@@H](O)[C@H](N)C(=O)O [THREONINE (L)] | -20.50 | -19.5 | -0.26 |  |
| COC(=O)C1(C)CCCC2(C)c3ccc(O)c(C(C)C)c3CCC12 (centres unmarked) [TOTAROL-19-CARBOXYLIC ACID, METHYL ESTER] | -12.62 | 22.4 | 0.37 |  |

Source: article PMC6736568, “Discovery of Novel Anti-cryptosporidial Activities From Natural Products by in vitro High-Throughput Phenotypic Screening” (Frontiers in Microbiology, 2019)
